Experiment: in vitro
Details: human, hela cells, % viability

In order of falling viability at 28.5 h, 10 µM:
1. CC1=NN(C(=O)c2c(Cl)c(C)nn2C)C(O)(C(F)(F)F)C1 (centres unmarked) [CBK058892]  117%
2. O=S(=O)(NCCCN1CCN(Cc2ccccc2)CC1)c1cccc(Cl)c1Cl [CBK074655]  114%
3. Cc1cc(C(F)(F)F)nn1CCNC(=O)c1cn2ccsc2n1 [CBK307260]  112%
4. COc1ccc(C(=O)NC(=N)NCCc2c[nH]c3ccccc23)cc1 [CBK267840]  111%
5. CC1(C)CC(=O)c2sc(NC(=O)c3cccc(N4C(=O)CCC4=O)c3)nc2C1 [CBK287565]  111%
6. CCOC(=O)N/N=C1\CCSc2sccc21 [CBK006300]  110%
7. CCOc1ccc(-c2c(C3CC3)n[nH]c2N)cc1OCC [CBK288177]  107%
8. CC(=O)c1ccc(-c2nc(NC(=O)c3ccccn3)cnc2-c2cccc(OC(F)(F)F)c2)s1 [CBK036929]  107%
9. O=C(COc1ccc2ccccc2c1)NCCN1CCOCC1 [CBK265444]  107%
10. CN(c1ccc(C(O)(C(F)(F)F)C(F)(F)F)cc1)S(=O)(=O)c1cccs1 [CBK067061]  107%
11. O=c1[nH]cc(CN2CCCN(S(=O)(=O)c3ccc(C(F)(F)F)cc3Cl)CC2)c(=O)[nH]1 [CBK062975]  106%
12. COc1ccc2c(c1)C(=O)NC1(CCN(C(=O)c3ccc(OC)c(C)c3)CC1)O2 [CBK166291]  106%
13. COc1ccc(C2SCCCS2)cc1C(C)(C)C [CBK018886]  105%
14. Cc1ccc(OCC(O)CN2CCC(C(N)=O)CC2)cc1C (centres unmarked) [CBK057100]  105%
15. Clc1ccc(CN2CCN(Cc3ccc(Cl)cc3)C2c2ccncc2)cc1 [CBK265207]  104%
16. COc1ccc2cc([C@@H](O)C[C@@H](C)O)c(Cl)nc2c1 [CBK022146]  104%
17. CC1(C)CC(NC(=O)C2CCN(S(C)(=O)=O)CC2)c2ccccc2O1 (centres unmarked) [CBK304404]  103%
18. Cc1[nH]c2c(C(=O)O)cccc2c1-c1ccccc1 [CBK012486]  103%
19. COC(=O)CCc1ccc(S(=O)(=O)N2CCCN(Cc3cccc(Br)c3)CC2)cc1 [CBK062981]  102%
20. CC(C)Nc1cncc(OC2CCOC2)n1 (centres unmarked) [CBK115882]  102%
21. O=C(N[C@@H]1CNCCC[C@H]1O)c1ccc(OCCN2CCCC2)cc1 [CBK289070]  101%
22. COc1nccnc1-c1ccccc1Cl [CBK107000]  100%
23. CCN(C)c1c(C)nc2c(OCc3cccc(Cl)c3)cccn12 [CBK147310]  100%
24. OCC1CCCN1c1nc(-c2ccc(Oc3ccccc3)cc2)cn2ccnc12 (centres unmarked) [CBK066713]  100%
25. O=C(NC1CCCCC1)NC1CCN(Cc2nnnn2Cc2ccco2)CC1 [CBK085007]  100%
26. O=C(c1ccc(C#CC2(O)CCCCC2)cc1)N1CCN(Cc2ccccc2)CC1 [CBK263094]  100%
27. Cc1ccc(N(CC(=O)Nc2ccc(S(=O)(=O)N3CCCCC3)cc2)S(C)(=O)=O)c(C)c1 [CBK263981]  99.8%
28. Cc1ccc(S(=O)(=O)Nc2ccc3c(ccn3CCOC3CCN(C(=O)OC(C)(C)C)CC3)c2)cc1Cl [CBK172991]  99%
29. CN1C(CC(O)c2ccccc2)CCCC1C(=O)c1ccccc1 (centres unmarked) [CBK268467C]  98.8%
30. O=C(Nc1ccc2n(c1=O)C[C@@H]1CNC[C@H]2C1)c1ccc(F)cc1 [CBK289078]  98.4%
31. CC(C)c1ccc(N2C(=O)N[C@@H]3CCN(C(=O)COc4ccccc4)[C@@H]3C2=O)cc1 [CBK289288]  98.2%
32. Cc1nc(C(F)(F)F)ccc1C(=O)NCC(C)(C)N1CCCCC1 [CBK281864]  98%
33. Cn1c(-c2ccc(C(=O)O)cc2)cc2oc(-c3ccccc3)nc2c1=O [CBK074957]  98%
34. Cc1nc2cccnc2n1CCNC(=O)c1cccc(Cl)c1 [CBK283593]  97.9%
35. CCn1cc(NC(=O)CCn2c(C(F)F)cc3cccnc32)cn1 [CBK282769]  97.1%
36. CCCCNC(=O)CCn1c(=O)[nH]c2ccccc2c1=O [CBK287824]  97%
37. Cc1nc(NS(=O)(=O)c2cc(F)c(Br)cc2F)sc1C(=O)O [CBK045556]  96.5%
38. O=C(NCCCN1CCOCC1)NC(=O)c1ccc(Cl)cc1 [CBK269531]  96.4%
39. CC(CCCC(C)(C)O)Nc1cncc(-c2ccccc2CO)n1 (centres unmarked) [CBK065529]  96.3%
40. CC(=O)Nc1cccc(OCC(=O)Nc2ccc(C)c(C)c2)c1 [CBK265429]  95.9%
41. Cc1cc(NC(=O)C(C)Oc2ccccc2)nc2c1c(=O)oc1ccccc12 (centres unmarked) [CBK291153]  95.8%
42. O=C(CCn1c(C(F)F)cc2cccnc21)NC1CCCC1 [CBK285063]  95.5%
43. COc1ccc(S(=O)(=O)N2CCC(C(=O)NC3(C(=O)O)CCCCC3)CC2)cc1OC [CBK295646]  95.5%
44. Cc1csc(C(Cc2ccsc2)NC(=O)c2ccc(=O)[nH]c2)n1 (centres unmarked) [CBK285109]  95.2%
45. Cc1nn(Cc2ccccn2)c(=O)n2cccc12 [CBK283849]  95.1%
46. Cc1cc(C(=O)NC2CCCC2)n[nH]1 [CBK200240]  94.2%
47. CC(C)S(=O)(=O)N1CCC(C(=O)NC(c2ccccc2)c2ccc3ccccc3n2)CC1 (centres unmarked) [CBK059676]  94.1%
48. O=C(O)C1CC=CCC1C(=O)N1CCN(C(=O)c2ccco2)CC1 (centres unmarked) [CBK299784]  94.1%
49. O=C(O)c1ccc(NC(=O)c2cnccn2)cc1 [CBK268110]  94%
50. Cc1ccc(S(N)(=O)=O)cc1NC(=O)c1ccco1 [CBK004204]  93.7%
51. CN(C(=O)C12CCOCC1CN(c1nccnc1C#N)C2)C1CCCC1 (centres unmarked) [CBK304244]  93.6%
52. Cc1ccc(NC(=O)CSc2nc3[nH]ncc3c(=O)[nH]2)cc1 [CBK287675]  93.5%
53. COc1cccc(/C=N/NC(=O)C(=O)NCc2ccccn2)c1O [CBK262097]  93.5%
54. NC(=O)CN1CC2(CCN(Cc3cccc(C(F)(F)F)c3)CC2)c2ccccc21 [CBK126776]  93.1%
55. CC(C)NC(=S)N1CC[C@@]2(NC(N)=O)N=C(N)O[C@H]2C1 [CBK010049]  93.1%
56. Cc1nn2c(=O)c(CCC(=O)O)c(C)[nH]c2c1-c1ccccc1 [CBK287011]  92.4%
57. CCCc1oc(C(=O)O)cc1CN(CC)CC [CBK267943C]  92.1%
58. CC(C)N1CCC(C(=O)NC(=O)NCCOc2cccc3ccccc23)CC1 [CBK034807]  91.9%
59. CC12CCCC(=O)N1C(CO)C(c1ccccc1)O2 (centres unmarked) [CBK011013]  91.2%
60. CCOC(=O)c1c(-c2ccc(OC)cc2)noc1C(=O)c1ccccc1 [CBK002295]  89.7%
61. O=C(COc1ccc(S(=O)(=O)N2CCCCC2)cc1Cl)NCc1ccccn1 [CBK269253]  89.6%
62. COc1ccc(CCNC(=O)CCn2nc(C)c(Cl)c2C)cc1C [CBK281643]  89.5%
63. Cc1nn(C)c2c1c(=O)n(C)c(=O)n2C [CBK026140]  89.2%
64. CNC(=O)c1ccc(OC)c(S(=O)(=O)NC)c1 [CBK270153]  88.9%
65. COc1ccc2c(c1)c(C(=O)N1CCn3nc(CO)cc3C1)c(C)n2C [CBK306764]  88.5%
66. COC(=O)C1=C(C)N=c2s/c(=C/c3ccc(OC)c(OC(C)=O)c3)c(=O)n2C1c1cccs1 (centres unmarked) [CBK077753]  88.3%
67. CCOC(=O)c1csc(C2CCCN2C(=O)c2cc(SC)ccc2Cl)n1 (centres unmarked) [CBK306491]  88%
68. O=S(=O)(N[C@H]1CO[C@H]2[C@@H]1OC[C@H]2O)c1ccc(Cl)cc1 [CBK289478]  87.7%
69. O=C(Nc1ccc(N2CCN(Cc3ccccc3F)CC2)cc1)c1cc2ccccc2o1 [CBK267210]  87.4%
70. OC(COCc1ccc(Cl)cc1)CN1CCN(C(c2ccccc2)c2ccccc2)CC1 (centres unmarked) [CBK074857C]  86.3%
71. Clc1ccc(-c2noc(-c3ccco3)n2)cc1 [CBK026405]  86%
72. CCOC(=O)C1CCN(Cn2nc(-c3cccs3)oc2=S)CC1 [CBK295165]  85.9%
73. C=CCn1cc(CN2CCc3nc(C)[nH]c(=O)c3C2)c2ccccc21 [CBK282376]  85.9%
74. Cc1c(NC(=O)c2ccc([N+](=O)[O-])o2)cccc1-c1nc2ccccc2s1 [CBK263051]  85.6%
75. CN1CCN(C(=O)c2cc(-c3ccc(C(=O)N4CCOCC4)cc3)cnc2N)CC1 [CBK158584]  85.6%
76. Cc1nc(NS(=O)(=O)/C=C/c2ccccc2)sc1C(=O)O [CBK045553]  84.7%
77. Cc1ccc(OC(=O)c2cc(Cl)cnc2Cl)cc1 [CBK090321]  84.5%
78. CCOC(=O)c1c(NC(=O)c2cc3ccccc3o2)sc2c1CCCC2 [CBK262552]  84%
79. Nc1cccc(-c2ccc(OC3CCNCC3)cc2)c1 [CBK126959T]  83.9%
80. CCOC(=O)C(CO)NC(=O)c1cncc(Br)c1 (centres unmarked) [CBK263926]  83.8%
81. O=C(O)c1ccccc1SC1CCc2ccccc2NC1=O (centres unmarked) [CBK286683]  83.1%
82. O=C(Nc1ccccc1C(F)(F)F)N1CCN(c2ccccc2Cl)CC1 [CBK045081]  79.7%
83. Cc1cc2ncc3c(n2n1)CC1CCC3N1C(=O)CCc1ccco1 (centres unmarked) [CBK284380]  78.2%
84. CN(c1cncc(Cl)n1)C1CCN(Cc2ccccc2)CC1 [CBK012767F]  77.7%
85. CCNC(=O)/N=C(/N)Nc1nc2ccccc2s1 [CBK028890]  72.1%
86. COc1ccc(CCC(C)NC2CCCc3c2[nH]c2ccc([N+](=O)[O-])cc32)cc1 (centres unmarked) [CBK262876]  71.6%

Same assay, conditions: human, hela cells, % viability, bulk resorufin, single well

In order of falling viability at 28.5 h, 10 µM:
1. CS(=O)(=O)c1cccc(-c2ccc3c(c2)COC2(CCNCC2)O3)c1 [CBK060990]  94.4%
2. O=C1NC(=S)N(Cc2ccco2)C(=O)/C1=C\c1ccc(-c2ccc(Cl)c(C(=O)O)c2)o1 [CBK265584]  90.1%
3. Cc1ccc(-c2ccc3c(c2)COC2(CCNCC2)O3)c(C)c1 [CBK060881]  89.7%

Reference: PMC12040169 (PLOS Biology, 2025)
